Results as given in a melting point compilation (Tetko et al.; mined from patent text by program, amines drawn as free bases though some values may be those of a salt).

| SMILES | melting point [°C] |
| --- | --- |
| C=CCNc1nc(NCc2ccccc2)c2scc(C)c2n1 | 97 to 98 |
| Clc1ccc(Cl)c(-c2csc(NC3=NCCCN3)n2)c1 | 188 to 189 |
| CCOC(=O)C(C)(C)n1c(=O)[nH]c2ccc(C)cc2c1=O | 156 to 157 |
| Cc1ccc(C)c(C2C(=O)CC(C)(C)CC2=O)c1 | 168 to 170 |
| O=C(Nc1cccc(-n2nc(C(F)(F)F)cc2C(F)(F)F)c1)c1c(F)cccc1F | 142 to 143 |
| CC(CS)C(=O)N(CC(=O)O)CC1CCCO1 (stereo not drawn) | 128 to 130 |
| CCCCCCCCCCCCSCCO | 31 to 32 |
| CC(=O)Nc1ccc(C=CC(=O)N2CCc3c([nH]c4ccccc34)C2c2ccccc2)cc1 (stereo not drawn) | 177 to 180 |
| NC(=O)C1CCCN1c1nc(-c2ccccc2)nc2[nH]c(CN3CCC(O)(c4ccccc4)CC3)cc12 (stereo not drawn) | 234 to 235 |
| N#Cc1ccc(C(=O)CC2C=COc3ccccc32)cc1 (stereo not drawn) | 111 |
| Cc1cc(C)c(NS(=O)(=O)c2cc(S(=O)(=O)Nc3c(C)cc(C)cc3C)c3cc(O)ccc3c2)c(C)c1 | 148 to 150 |
| CC(=O)Nc1nc(Cl)c2c(ncn2COC(COC(C)C)COC(C)C)n1 | 73 to 75 |
| CCOC(=O)NC1CCN(c2ncnc3cc(OC)c(OC)cc23)CC1 | 179 to 181 |
| O=C(NC12CC3CC(CC(C3)C1)C2)c1nc(Br)n(-c2ccccc2)c1Br | 228 to 231 |
| CC(C)(C)C1C(=O)NN=C2CCCCC21 (stereo not drawn) | 161 to 164 |
| Cc1c(Br)cccc1N1Cc2cc(C(C)(C)C)sc2C1=O | 185 to 186 |
| O=C1CC2(CCOc3ccc(Cl)cc32)C(=O)N1 (stereo not drawn) | 225 to 226 |
| CCCC(=O)c1cnc2c(OC)cccc2c1Nc1c(C)cc2c(c1C)OCO2 | 150 to 152 |
| COc1cc2c(cc1OC)C(=O)NC(=O)C2 | 234 to 238 |
| O=S(=O)(NC1CCN(C2CCCCC2)CC1)c1ccc(Nc2ccnc3cc(Cl)ccc23)cc1 | 192 to 193 |

| SMILES | melting point [°C] |
| --- | --- |
| FC(F)(F)c1ccc(-c2ncc(C#Cc3cc4ccccc4s3)s2)cc1 | 178 to 180 |
| Cn1cc(C=O)c(-c2ccc([N+](=O)[O-])o2)n1 | 181 to 182 |
| O=C(O)CCCC#CCc1c(-c2ccccc2)nc(-c2ccccc2)n1-c1ccccc1 | 144 to 145 |
| c1ccc(SC2(Sc3ccccc3)CCCn3cc(-c4ccccc4)nc32)cc1 | 129 to 131 |
| COC1CCC(CCNC(=O)n2cc(F)c(=O)[nH]c2=O)CC1OC (stereo not drawn) | 129 |
| Fc1ccc(F)c(N=C2CCCc3cc4c(nc32)C(=Nc2c(F)cccc2F)CCC4)c1 | 145 to 150 |
| CC(C)(C)C(=O)Nc1ccc(Br)cn1 | 57 to 59 |
| OCc1cccc2sc(-c3ccccc3)nc12 | 116 to 117 |
| CSc1ccc(C(=O)c2c(C)cc3n2CCC3C(=O)O)n1C (stereo not drawn) | 182 to 184 |
| Cc1cc(-c2c(-c3ccc(S(N)(=O)=O)cc3)cnn(-c3ccc(F)c(F)c3)c2=O)ccc1F | 243 to 245 |
| O=C1Nc2cccc(F)c2C12COc1cc3c(cc12)OCCO3 (stereo not drawn) | 282 to 285 |
| CCCn1nc2c(N)nc3ccccc3c2c1NCCC1CCN(C(C)=O)CC1 | 203 to 206 |
| O=C1c2c(cc(O)c(Cl)c2Cl)CC1C1CCCC1 (stereo not drawn) | 222 to 225 |
| O=C1N(CCCCN2CCN(c3n[nH]c4cc(F)ccc34)CC2)CSC12CCCC2 | 132 to 134 |
| COc1c(C)cc(-c2c3ccccc3c(C)c3sc4ccccc4c23)cc1C | 154 to 156 |
| CN1CCC(OC2c3ccccc3CC(C)(C)n3cc(-c4ccccc4)nc32)CC1 (stereo not drawn) | 85 |
| CCOC(=O)C1=C(C)NC(C)=C(C(=O)OC)C1c1ccccc1/C=C/C(=O)OC(C)(C)C (stereo not drawn) | 165 to 167 |
| O=C1CCC(C(=O)Nc2ccc(Cl)cc2C(=O)c2ccccc2Cl)O1 (stereo not drawn) | 170 to 173 |
| CCN(CCO)CCN1C(=O)c2ccccc2C1=O | 56 to 58 |
| COc1nc(C)nc(OC)c1N1CCCn2c1nc1c(Cl)ccc(C(O)(C3CC3)C3CC3)c12 | 204 to 205 |

The next lines start with the values.

| melting point [°C] | SMILES |
| --- | --- |
| 151 to 154 | CCCc1c(OCCCCCOc2ccc(C(=O)CCCC(=O)O)cc2CCC(=O)O)ccc2c1OCCC2=O |
| 218 to 219 | COc1ccc(NC(=O)Nc2ccccc2)cc1NC(=S)Nc1cc(Cl)cc(Cl)c1 |
| 126 to 128 | CCn1c(=O)ccc2cnc(Nc3ccccc3OC)nc21 |
| 122 to 123 | CCCCn1c(=O)c(NC(=O)Nc2c(C(C)C)cc(CO)cc2C(C)C)c(-c2cccc(OC)c2)c2cccnc21 |
| 129 to 131 | COc1ccc(-c2ccc3nn(-c4cc(C(C)(C)CC(C)(C)C)cc(C(C)(C)c5ccccc5)c4O)nc3c2)cc1 |
| 149 to 150 | CC(C)NCCn1c(-c2ccc(O)cc2)cc2c1CCCC2 |
| 167 to 170 | COC(=O)c1cc([N+](=O)[O-])ccc1CS(N)(=O)=O |
| 127 to 128 | CCOC(=O)/C=C/c1cc(OCc2ccc(OCc3nc(-c4ccco4)oc3C)c(OC)c2)nn1-c1ccccc1 |
| 163 to 164 | Cc1ccc(-n2nc(C(C)(C)C)cc2NC(=O)c2cccc3cc(Oc4cc(Cl)ncn4)ccc23)cc1 |
| 30 to 35 | COc1ccc2cc([C@H](C)C(=O)SCCCCO[N+](=O)[O-])ccc2c1 |
| 143 to 144 | CCN1c2ncc(COc3ccc(F)cc3)cc2C(=O)N(C)c2ccc(Cl)nc21 |
| 94 to 97 | CCN(Cc1ccccc1)c1nc(=O)c2cc(C(F)(F)F)cc([N+](=O)[O-])c2s1 |
| 220 | Nc1nc(C(=Cc2cccc3ccccc23)C(=O)O)cs1 |
| 68 to 74 | COC(=O)c1c(F)cc(OCCNC(=O)C2Cc3ccccc3N2S(=O)(=O)c2ccc(-c3ccc(F)cc3Cl)cc2)cc1F (stereo not drawn) |
| 73 to 76 | COc1ccc2nc(CC(C)C)c(CN)c(-c3ccccc3)c2c1 |
| 174 to 176 | CCCCCCOc1ccc(NC(=O)Nc2ccccc2CCc2cc(C(C)(C)C)c(O)c(C(C)(C)C)c2)cc1 |
| 108 | COc1ccc(Sc2cc3ccccc3nn2)cc1 |
| 243 to 245 | COC(=O)c1cc(NC(C)=O)c2cc(Cc3ccc(F)cc3)cnc2c1O |
| 57 to 62 | O=C(N[C@@H](CO)C(=O)NCCCOC1CCCCC1)c1ccc(C(=O)c2cccnc2)cc1 |
| 159 to 160 | CCOC(=O)c1c(CCl)nc2cc(OC)c(OC)cc2c1-c1ccc(Cl)c(Cl)c1 |
| 169 to 171 | CCn1ncc2c(NCc3ccc(OC)c(OC)c3)c3ccccc3nc21 |
| 89 to 91 | Clc1ncn(CCOc2ccc(Oc3ccccc3)cc2)c1Cl |
| 220 to 221 | CCOC(=O)c1cc2c(cn1)[nH]c1ccc(N(C)C)cc12 |
| 142 to 144 | CNCCn1nc(N)c2cc3cc(OC)ccc3nc21 |
| 137 to 138 | COc1ccc(S(=O)(=O)C(c2cnc(C(=O)NCCO)cc2C)c2cc(F)ccc2F)cc1F (stereo not drawn) |
| 65 to 67 | COc1ccc(CSc2cc(OC)c(OC)c(OC)c2)cc1 |
| 123 to 124 | COc1ccc(CNc2ncnc3c2ncn3C2OC(Cn3cc(Cc4ccccc4)nn3)C(O)C2O)cc1 (stereo not drawn) |
| 163 to 164 | COc1ccc(-c2cc(=S)n(Cc3cccnc3)nc2-c2ccc(OC)cc2)cc1 |
